In patent US6566508B2, “Fluorogenic compounds and uses therefor” (3M Innovative Properties Company, priority 2000, dated 2003):
Read-outs that look alike come from different tables or passages of the source.

Experiments:
[1] = Fluorescence excitation and emission spectra; conditions: for λem (nm) / λex (nm): anion of hydrolysis product
Source text: Fluorescence measurements were made using a SPEX Fluorolog™ Series spectrofluorimeter (SPEX Industries, Inc., Edison, N.J.).
By using an excitation source filter centered in this spectral window and an emission source filter centered between 480 nm and 600 nm, the formation of TU anion can be measured as a product of the enzymatic cleavage of β-TUGlc without interference from β-TUGlc fluorescence.

[2] = pKa determination from fluorescence emission as a function of pH
Protocol: Fifty microliters of this solution were then diluted to 4.00 mL in a series of 50 mM sodium phosphate buffer solutions, each having a different pH, corresponding to the traces of FIG. 7a, as shown in Table 1. The final concentration of TU was 3.08×10^−4 M.

E. coli P18 cells = assay: Escherichia coli detection with β-TUGal in growth media (microwell fluorescence); type: cell-based
Protocol: E. coli is known to secrete extracellular galactosidase. In a selective growth media, E. coli can be detected based on development of this enzyme activity. Varying concentrations of 3-(2-thienyl) umbelliferyl-β-D-galactoside (β-TUGal) indicator were assayed against three known concentrations of E. coli P 18 cells: ca 10^3, 10^2, and 10 cells/mL. Viable cell counts were determined using Petrifilm (3M, St. Paul, Minn.). Adjusting for the dilutions used in the fluorescence detection experiments, cell counts were approximately 56, 5.6, and 0.56 cells per well. A fresh overnight culture of E. coli P18 was prepared and grown in tryptic soy broth (TSB, Sigma Chemical Co., St. Louis, Mo.). Ten μL of this stock culture was diluted into […] of Butterfields phosphate buffer (Hardy Diagnostics, Santa Maria, Calif.) to give a 10,000 fold dilution. Next, 10 mL of this new solution was diluted into 90 mL of phosphate buffer to give an approximate E. coli concentration of 10^3 cells/mL. Two more dilutions in this same manner yielded cultures of 10^2 and 10 cells/mL. […] Each of the three lowest dilutions of the E. coli culture were counted on Petrifilm by plating 1 mL of each and growing overnight at 37° C.

[3] = target: β-galactosidase from E. coli (Escherichia coli, UniProt P00722); conditions: pH 7.6, 37° C., excitation 450 nm, 1, 10 and 20 μM substrate
Protocol: β-Galactosidase activity was continuously assayed at pH 7.6 in a fluorometer using front face detection.
Samples were excited at 450 nm and emission was monitored at 502 nm.
Assay solutions were prepared as follows: a 100 mM sodium phosphate solution, pH 7.6, a 30 mM MgCl2 solution, a solution of β-TUGal (3.08×10^−2 M, Example 1) in N,N-dimethyl formamide (DMF), and a solution of β-galactosidase (1.0 units/μl) from E. coli (Grade VIII, Sigma Chemical Co., St. Louis, Mo.) reconstituted in 100 mM sodium phosphate, pH 7.3.
All reagents were kept on ice until their time of use. From them, two solutions were prepared: the substrate solution and the enzyme solution. The substrate solution was prepared in a sample vial by further dilution of the β-TUGal solution in DMF. The preparations gave final concentrations of 1, 10, and 20 μM β-TUGal. In a separate cuvette, the phosphate buffer was combined with 150 μL MgCl2 solution and the appropriate amount of reconstituted β-galactosidase to make the enzyme solution. This was then incubated for seven minutes at 37° C. Following incubation, the substrate solution was added and the fluorescence was measured by front face detection over a 10-minute period at 37° C.

β-glucosidase [4] = assay: Hand-held LED probe, cleavage of β-TUGlc; type: biochemical; conditions: 0.125 units β-glucosidase, pH 7.6 PBS, GaN LED
Protocol: A solution of 100 μL of 1.0 mM β-TUGlc (Example 1) in DMF was combined with 840 μL of 7.6 pH PBS in a 1 mL cuvette, and the volume was adjusted to 990 μL by the addition of […] of 30 mM aq. MgCl. The mixture was irradiated using a GaN LED (λmax=480 nm, Nichia Chemical Industries, Ltd., Anan, J P) mounted in a compact, hand-held probe, and 10 μL of β-glucosidase (0.125 units in pH 7.6 PBS) was added. Within ten seconds, a strong fluorescent signal could be seen in the cuvette.

Bacillus subtilis spores = assay: LED-based monitoring of bacterial cleavage of β-TUGlc; type: cell-based
Source text: LED 110, having a maximum emission at 475 nm (Model HP HLMP CB15, Hewlett Packard Instruments, Palo Alto, Calif.), was driven in a pulsed mode with a 10% duty cycle by computer-controlled pulse generator 132 (Hewlett Packard Instruments). Light from LED 110 was introduced into filter block 130 (Model I3, Leica Microsystems, Inc., Deerfield, Ill.), comprising excitation filter 112 (model BP, 450-490 nm), dichroic mirror 114 (model RKP, reflection short pass at 510 nm), and emission filter 120 (model LP, 515 nm) and focused on an illumination region of sample 118 by objective lens 116. The illumination region was designed to accommodate a solution sample, a microfluidic chip, or other sample that might contain β-TUGlc to be enzymatically cleaved. A 10× objective was used for large detection zones (e.g., solution cuvettes, microwell arrays) and a 40× objective was used for small samples (e.g., 50 μm wide channels in microfluidic chips). Both objective lenses were obtained from Melles Griot, Irvine, Calif. […] Return fluorescence was passed through objective lens 116, reflected from dichroic mirror 114 through emission filter 120 and iris diaphragm 122, and detected with photomultiplier tube 124 (PMT Model H5783, Hamamatsu Corp., Bridgewater, N.J.) having an adjustable gain between 0 and 70,000 Amperes/Watt. PMT module 124 was powered by a 15 volt power supply (not shown). […]

β-glucosidase [5] = assay: LED-based monitoring of enzymatic cleavage of β-TUGlc; type: biochemical
Protocol: A 10× objective was used for large detection zones (e.g., solution cuvettes, microwell arrays) and a 40× objective was used for small samples (e.g., 50 μm wide channels in microfluidic chips). […] (Model #04 OAS 016; 0.65 N.A.).
Two stock solutions of β-glucosidase (Sigma Chemical Co., St. Louis, Mo.) were prepared in pH 7.6 phosphate buffered saline (PBS): (a) 1 enzyme unit/20 μL and (b) 1 enzyme unit/400 μL, where one enzyme unit liberates 1 μMole of product per minute when salicin is the substrate. Required amounts of the stock solutions were diluted with 980 μL of PBS to create samples of 0.5, 0.125, 0.0625, 0.025, and 0.0125 units per mL, represented in FIG. 17a by traces 1 through 5, respectively. These samples were incubated for 7 minutes at 37° C., then treated with 5 μL of 24.6 mM β-TUGlc in DMF (Example 1) such that the initial concentration of β-TUGlc was 123 μM.
Fluorescence resulting from cleavage of the substrate was monitored in a thermostatted cuvette at 37 ° C. using the testbed described in Example 9 with a PMT gain setting of 822 Amperes/Watt. Fluorescent response for each enzyme concentration was monitored for three minutes. FIG. 17b is a plot of the initial rates of reaction obtained from the data in FIG. 17a.

[6] = tested on: B. stearothermophilus spores; assay: Bacillus stearothermophilus detection with β-TUGlc; type: cell-based
Protocol: B. stearothermophilus spores (commercially available as ATCC 7953 or ATCC 8005 from American Type Culture Collection, Rockville, Md.) were diluted in growth media to a concentration of 1.3×10^8 cells per mL. Dilutions to 10^7 […] and 10^6 cells/mL were prepared using 50 mM sodium phosphate, pH 7.6. Aliquots of these solutions were incubated with β-TUGlc (2×10^−6 M) at 56° C. in a fluorimeter and fluorescence was monitored with excitation at 450 nm and emission at 502 nm. […] In a similar manner, spore solutions that had been steam-sterilized for 20 minutes at 121° C. were mixed with the β-TUGlc. […] The growth medium for this Example was prepared by dissolution of trypticase peptone (5 g), phytone peptone (12 g) and L-alanine (17 mg) in 1 liter of water.

[7] = Autoclave stability of β-TUGlc; type: physicochemical; conditions: 0.1 g/mL in B. subtilis growth media and pH 7.6 PBS; 20 minutes at 121° C., then 15 minutes at 132° C.
Protocol: Solutions of 0.1 g/mL of β-TUGlc (Example 1) in B. subtilis growth media and in pH 7.6 phosphate buffered saline (PBS) were heated in an autoclave for 20 minutes at 121° C. Fluorescence spectrum on excitation at 362 nm was obtained. The sample was heated a second time in an autoclave for 15 minutes at 132° C., and the fluorescence spectrum was obtained. […] Therefore, β-TUGlc was sufficiently robust to be used in a sterilization indicator format such as a Attest™ Rapid Readout Biological Indicator (3M Company, St. Paul, Minn.), wherein the fluorogenic enzyme substrate and the biological spore are both exposed to the conditions within the steam sterilizer.

[8] = tested on: B. stearothermophilus α-glucosidase; assay: Enzymatic hydrolysis of α-TUGlc; type: biochemical; conditions: 60° C., growth media, 10 μL of 246 μM substrate, ex 450 nm, em 502 nm
Protocol: Commercially prepared B. stearothermophilus α-glucosidase (Sigma Chemical Company, St. Louis, Mo.) was used as 100 units per mL (1 unit produces 1 μmole of product per minute). 10 μL of this solution was added to […] of growth media to simulate the actual environment of the bacterial spores. This enzyme and media mixture was then incubated for 7 minutes at 60° C., at which time 10 μL of 246 μM α-TUGlc (prepared as described in Example 4) was added. The reaction was monitored on the SPEX Fluorolog™ spectrofluorimeter by exciting at 450 nm with emission at 502 nm. […] Variation in fluorescence may be due to variation in activity of the bacterial enzyme per mL of mixture. The assays of examples 7 and 8 confirmed the presence of the α-glucoside derivative.

[9] = tested on: B. stearothermophilus spores; assay: Bacterial hydrolysis of α-TUGlc; type: cell-based, Bacillus stearothermophilus; conditions: spores 1×10^8 cells/mL diluted in growth media, 56° C., 10 μL of 246 μM substrate
Protocol: 100 μL of B. stearothermophilus spores (initial cone. 1×10^8 cells/mL) was added to 890 μL of growth media and the mixture was incubated at 56° C. for 7 minutes. […] This increase in fluorescence indicates enzymatic cleavage of the substrate. However, because the spores have both β- and α-glucosidase activity, the stereochemistry of the substrate can not be judged.

[10] = 5 μM solution in phosphate buffered saline at pH 7.6
[11] = 5 μM solution in 50 mM PBS at pH 10.0

Sequence of β-galactosidase from E. coli (P00722 2-1024): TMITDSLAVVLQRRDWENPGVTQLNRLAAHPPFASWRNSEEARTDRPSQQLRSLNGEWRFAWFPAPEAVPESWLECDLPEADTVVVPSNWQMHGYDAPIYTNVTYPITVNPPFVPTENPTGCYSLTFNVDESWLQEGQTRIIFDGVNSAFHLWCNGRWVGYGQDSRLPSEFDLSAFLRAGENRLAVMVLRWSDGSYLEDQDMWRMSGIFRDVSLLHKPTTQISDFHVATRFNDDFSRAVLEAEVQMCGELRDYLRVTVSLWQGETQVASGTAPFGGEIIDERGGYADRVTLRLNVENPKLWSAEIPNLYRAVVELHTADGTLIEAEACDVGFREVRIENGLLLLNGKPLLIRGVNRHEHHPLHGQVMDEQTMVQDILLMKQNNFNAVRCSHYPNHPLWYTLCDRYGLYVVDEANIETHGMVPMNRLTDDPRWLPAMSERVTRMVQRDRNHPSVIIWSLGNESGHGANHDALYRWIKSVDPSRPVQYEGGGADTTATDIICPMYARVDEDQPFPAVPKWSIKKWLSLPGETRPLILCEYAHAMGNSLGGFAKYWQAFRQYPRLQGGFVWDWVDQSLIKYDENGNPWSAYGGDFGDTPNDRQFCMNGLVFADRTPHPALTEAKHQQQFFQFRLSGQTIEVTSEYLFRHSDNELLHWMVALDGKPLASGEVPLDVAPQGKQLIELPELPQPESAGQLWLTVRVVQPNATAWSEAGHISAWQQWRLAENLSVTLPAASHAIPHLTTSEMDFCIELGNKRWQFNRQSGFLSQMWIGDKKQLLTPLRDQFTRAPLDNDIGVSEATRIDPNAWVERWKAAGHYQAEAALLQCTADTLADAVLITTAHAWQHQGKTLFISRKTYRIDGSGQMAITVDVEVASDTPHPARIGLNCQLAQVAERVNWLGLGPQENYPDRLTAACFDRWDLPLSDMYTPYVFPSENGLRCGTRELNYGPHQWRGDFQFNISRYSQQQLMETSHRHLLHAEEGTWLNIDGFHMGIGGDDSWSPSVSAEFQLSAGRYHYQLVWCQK

O=c1oc2cc(O)ccc2cc1-c1nc2ccccc2o1 [3-(2-benzoxazolyl) umbelliferyl anion]
λem (nm) [1]: 471 nm | λex (nm) [1]: 425 nm | pKa [2]: 6.56

O=c1oc2cc(O[C@@H]3O[C@H](CO)[C@H](O)[C@H](O)[C@H]3O)ccc2cc1-c1cccs1 [β-TUGal, 3-(2-thienyl)-umbelliferyl-7-β-D-galactoside]
positive results (E. coli P18 cells; 0.56 cell concentration): 3 of the 10 concentrations showed positive results | fastest time to positive result (E. coli P18 cells; 56 cells per well, 62 μM indicator): 6.5 h | fluorescence at 502 nm on addition of β-galactosidase [3]: rapid increase in fluorescence

O=c1oc2cc(O[C@@H]3O[C@H](CO)[C@@H](O)[C@H](O)[C@H]3O)ccc2cc1-c1cccs1 [β-TUGlc, 3-(2-thienyl)-umbelliferyl-7-β-D-glucoside]
time to strong fluorescent signal (β-glucosidase [4]): ten | time to presumptive identification of B. subtilis after mixing (Bacillus subtilis spores; 10^8 spores/mL, 37° C., PMT gain 88 Amperes/Watt): less than five | fluorescent signal with steam-sterilized control (Bacillus subtilis spores; steam-sterilized at 121° C. for 20 minutes): no time-dependent changes in the fluorescent signal | emission maximum [1, 10]: ~460 nm | excitation maximum [1, 10]: ~380 nm | time to significant, detectable fluorescent signal (β-glucosidase [5]; 0.5 enzyme units, 123 μM substrate, 37° C., pH 7.6 PBS): less than 5 seconds | fluorescent signal with steam-sterilized enzyme (β-glucosidase [5]; enzyme solutions steam-sterilized at 121° C. for 20 minutes): no time-dependent changes in the fluorescent signal | time until fluorescence changes were evident ([6]; 10^7 and 10^6 cells/mL, 2×10^−6 M substrate, 56° C., ex 450 nm, em 502 nm): less than 10 minutes | cleavage by steam-sterilized spore solutions ([6]; spores steam-sterilized 20 minutes at 121° C.): no enzymatic cleavage reaction | fraction hydrolyzed during each autoclave cycle [7]: approximately 10%

O=c1oc2cc(O)ccc2cc1-c1nc2ccccc2s1 [3-(2-benzothiazolyl) umbelliferyl anion]
λem (nm) [1]: 488 nm | λex (nm) [1]: 447 nm | pKa [2]: 6.79

O=c1oc2cc(O)ccc2cc1-c1nc2ccccc2[nH]1 [3-(2-benzoimidazolyl) umbelliferyl anion]
λem (nm) [1]: 477 nm | λex (nm) [1]: 420 nm | pKa [2]: 7.01

O=c1oc2cc(O)ccc2cc1-c1cccs1 [3-(2-thienyl) umbelliferyl anion, 3-(2-thienyl) umbelliferone]
emission maximum [1, 11]: ~502 nm | excitation maximum [1, 11]: ~410 nm | λem (nm) [1]: 502 nm | λex (nm) [1]: 410 nm | pKa ([2]; umbelliferone hydrolysis product): 7.57±0.03

O=c1oc2cc(OC3OC(CO)C(O)C(O)C3O)ccc2cc1-c1cccs1 (stereo not drawn) [α-TUGlc]
time at which Vmax appears [8]: about 2 minutes | fluorescence at 502 nm after substrate addition [9]: Fluorescence increased rapidly in the first 20 minutes
